Assay results published in patent US20220289753A1, “SHP2 INHIBITORS” (IRBM S.P.A., priority 2019, published 2022).
Read-outs that look alike come from different tables or passages of the source.

Experiments:
[1] = biological target: T1, SHP-2 enzyme (Met1-Leu525) (Homo sapiens, UniProt Q06124); experiment: SHP2 inhibition enzymatic assay (DiFMUP substrate, IRS1 peptide activation); assay type: biochemical; details: SHP2 wt; activated by 500 nM IRS1 peptide; 75 μM DiFMUP substrate
T1 construct: synthetized by Origene, Met1-Leu525, cat #TP750155; purchased Origene TP750155
T1 sequence (Q06124 1-525): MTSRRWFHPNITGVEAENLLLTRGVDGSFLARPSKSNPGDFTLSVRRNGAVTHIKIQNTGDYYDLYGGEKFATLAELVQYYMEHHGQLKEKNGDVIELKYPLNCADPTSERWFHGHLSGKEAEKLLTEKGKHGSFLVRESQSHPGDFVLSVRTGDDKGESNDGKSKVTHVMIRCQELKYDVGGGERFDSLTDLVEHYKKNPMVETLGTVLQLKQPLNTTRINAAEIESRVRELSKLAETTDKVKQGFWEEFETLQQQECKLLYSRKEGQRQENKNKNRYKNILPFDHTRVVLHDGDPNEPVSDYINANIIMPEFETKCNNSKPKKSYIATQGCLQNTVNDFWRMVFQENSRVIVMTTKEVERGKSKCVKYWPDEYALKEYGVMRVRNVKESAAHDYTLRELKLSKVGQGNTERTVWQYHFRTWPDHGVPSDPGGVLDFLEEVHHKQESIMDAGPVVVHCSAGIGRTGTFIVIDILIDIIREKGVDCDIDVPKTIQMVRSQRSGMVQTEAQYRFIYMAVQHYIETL
In short: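 SHP-2 (Met1-Leu525, 0.5 nM final) preincubated 30 min with compounds and IRS1 activating peptide in HEPES pH 7.2 buffer with NaCl, KCl, EDTA, tween-20, 5 mM DTT. DiFMUP then added for 30 min at room temperature and fluorescence read. IC50 from four-parameter logistic fit of % inhibition.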

[2] = system: ERK phosphorylation in KYSE-520 cells; experiment: Phospho-ERK cellular assay (Advanced phospho-ERK1/2 (Thr202/Tyr204) TR-FRET kit); assay type: cell-based; details: Homo sapiens, KYSE-520, 2 h, read-out: pERK IC50
In short: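 IC50 values are inflection points of four-parameter logistic fits of percent activity against compound dilution. Compound exposure lasted 2 h at 37° C in KYSE-520 cells. Lysates were probed overnight with Eu-cryptate/d2 antibodies to ERK1/2 phosphorylated at Thr202/Tyr204, so reduced TR-FRET indicates SHP2 inhibition.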

[3] = KYSE-520 cells, 2 h at 37° C., TR-FRET

| IC50 [1] [nM] | IC50 [2, 3] [nM] | Compound | IC50 [2] [nM] |
| --- | --- | --- | --- |
| < 500 | < 1000 | COc1nc(N)ccc1Sc1cnc2[nH]c(N3CCC4(CC3)Cc3ccccc3[C@H]4N)nc2n1 [Example 269, (S)-1′-(5-((6-amino-2-methoxypyridin-3-yl)thio)-1H-imidazo[4,5-b]pyrazin-2-yl)-1,3-dihydrospiro[indene-2,4′-piperidin]-1-amine] |  |
| > 3000 | 1000 to 5000 | COc1ncc(CN)cc1Sc1cnc2[nH]c(N3CCC4(CC3)Cc3ccccc3[C@H]4N)nc2n1 [Example 250, (1S)-1′-[5-[5-(aminomethyl)-2-methoxy-pyridin-3-yl]sulfanyl-1H-imidazo[4,5-b]pyrazin-2-yl]spiro[1,3-dihydroindene-2,4′-piperidine]-1-amine] |  |
| < 500 | < 1000 | Nc1nccc(Sc2cnc3[nH]c(N4CCC5(CC4)Cc4ccc(CO)cc4[C@H]5N)nc3n2)c1Cl [Example 244, (S)-(1-amino-1′-(5-((2-amino-3-chloropyridin-4-yl)thio)-1H-imidazo[4,5-b]pyrazin-2-yl)-1,3-dihydrospiro[indene-2,4′-piperidin]-6-yl)methanol] |  |
| 500 to 3000 | > 5000 | CC(C)(C)S(=O)(=O)N[C@@H]1c2cccnc2CC12CCN(c1nc3nc(Sc4cccnc4C(F)(F)F)cnc3[nH]1)CC2 [Example 142, (S)-2-methyl-N-(1′-(5-((2-(trifluoromethyl)pyridin-3-yl)thio)-1H-imidazo[4,5-b]pyrazin-2-yl)-5,7-dihydrospiro[cyclopenta[b]pyridine-6,4′-piperidin]-5-yl)propane-2-sulfonamide] |  |
| < 500 | 1000 to 5000 | N[C@@H]1CCCC12CCN(c1nc3ncc(Sc4cccnc4C(F)(F)F)nc3[nH]1)CC2 [Example 2, (R)-8-(6-((2-(trifluoromethyl)pyridin-3-yl)thio)-1H-imidazo[4,5-b]pyrazin-2-yl)-8-azaspiro[4.5]decan-1-amine] |  |
| < 500 | < 1000 | N#Cc1ccc2c(c1)[C@H](N)C1(CCN(c3nc4nc(Sc5ccnc(N)c5Cl)cnc4[nH]3)CC1)C2 [Example 260, (R)-1-amino-1′-(5-((2-amino-3-chloropyridin-4-yl)thio)-1H-imidazo[4,5-b]pyrazin-2-yl)-1,3-dihydrospiro[indene-2,4′-piperidine]-6-carbonitrile] |  |
| < 500 | < 1000 | COC(=O)c1c(N2CCC3(CC2)Cc2ccccc2[C@H]3N)[nH]c2ncc(Sc3cccc(Cl)c3Cl)nc12 [Example 253, methyl (S)-6-(1-amino-1,3-dihydrospiro[indene-2,4′-piperidin]-1′-yl)-2-((2,3-dichlorophenyl)thio)-5H-pyrrolo[2,3-b]pyrazine-7-carboxylate] |  |
| < 500 | > 5000 | COC1CN(c2nccc(Sc3cnc4nc(N5CCC6(CC5)Cc5ccccc5[C@H]6N)[nH]c4n3)c2Cl)C1 [Example 181, (S)-1′-(5-((3-chloro-2-(3-methoxyazetidin-1-yl)pyridin-4-yl)thio)-1H-imidazo[4,5-b]pyrazin-2-yl)-1,3-dihydrospiro[indene-2,4′-piperidin]-1-amine] |  |
| < 500 | < 1000 | Nc1nccc(Sc2cnc3nc(N4CCC5(CC4)Cc4cc(F)ccc4[C@H]5N)[nH]c3n2)c1Cl [Example 199, (S)-1′-(6-((2-amino-3-chloropyridin-4-yl)thio)-1H-imidazo[4,5-b]pyrazin-2-yl)-5-fluoro-1,3-dihydrospiro[indene-2,4′-piperidin]-1-amine] |  |
| < 500 | < 1000 | N[C@@H]1c2cccnc2CC12CCN(c1nc3nc(Sc4ccnc(Cl)c4C(F)(F)F)cnc3[nH]1)CC2 [Example 262, (S)-1′-(5-((2-chloro-3-(trifluoromethyl)pyridin-4-yl)thio)-1H-imidazo[4,5-b]pyrazin-2-yl)-5,7-dihydrospiro[cyclopenta[b]pyridine-6,4′-piperidin]-5-amine] |  |
| < 500 | 1000 to 5000 | COc1nccc(Sc2cnc3[nH]c(N4CCC5(CC4)Cc4ccccc4[C@H]5N)nc3n2)c1Cl [Example 239, (S)-1′-(5-((3-chloro-2-methoxypyridin-4-yl)thio)-1H-imidazo[4,5-b]pyrazin-2-yl)-1,3-dihydrospiro[indene-2,4′-piperidin]-1-amine] |  |
| < 500 | < 1000 | N[C@@H]1c2cc(F)ccc2CC12CCN(c1nc3ncc(Sc4cccc5c4OCCN5)nc3[nH]1)CC2 [Example 184, (S)-1′-(6-((3,4-dihydro-2H-benzo[b][1,4]oxazin-8-yl)thio)-1H-imidazo[4,5-b]pyrazin-2-yl)-6-fluoro-1,3-dihydrospiro[indene-2,4′-piperidin]-1-amine] |  |
| 500 to 3000 | > 5000 | COc1nnccc1Sc1cnc2[nH]c(N3CCC4(CC3)Cc3ccccc3[C@H]4N)nc2n1 [Example 236, (S)-1′-(5-((3-methoxypyridazin-4-yl)thio)-1H-imidazo[4,5-b]pyrazin-2-yl)-1,3-dihydrospiro[indene-2,4′-piperidin]-1-amine] |  |
| < 500 | < 1000 | Cn1ncc2nccc(Sc3cnc4[nH]c(N5CCC6(CC5)Cc5ccccc5[C@H]6N)nc4n3)c21 [Example 261, (S)-1′-(5-((1-methyl-1H-pyrazolo[4,3-b]pyridin-7-yl)thio)-1H-imidazo[4,5-b]pyrazin-2-yl)-1,3-dihydrospiro[indene-2,4′-piperidin]-1-amine] |  |
| < 500 | < 1000 | N[C@@H]1c2cc(F)c(F)cc2CC12CCN(c1nc3nc(Sc4ccnc(NC5CC5)c4Cl)cnc3[nH]1)CC2 [Example 189, (S)-1′-(5-((3-chloro-2-(cyclopropylamino)pyridin-4-yl)thio)-1H-imidazo[4,5-b]pyrazin-2-yl)-5,6-difluoro-1,3-dihydrospiro[indene-2,4′-piperidin]-1-amine] |  |
| < 500 | < 1000 | N[C@@H]1c2ccccc2CC12CCN(c1nc3ncc(Sc4cccc5[nH]ccc45)nc3[nH]1)CC2 [Example 198, (S)-1′-(6-((1H-indol-4-yl)thio)-1H-imidazo[4,5-b]pyrazin-2-yl)-1,3-dihydrospiro[indene-2,4′-piperidin]-1-amine] |  |
| < 500 | < 1000 | COc1ccc2c(c1)[C@@H](N)C1(CCN(c3nc4nc(Sc5ccnc(N)c5Cl)cnc4[nH]3)CC1)C2 [Example 205, (S)-1′-(5-((2-amino-3-chloropyridin-4-yl)thio)-1H-imidazo[4,5-b]pyrazin-2-yl)-6-methoxy-1,3-dihydrospiro[indene-2,4′-piperidin]-1-amine] |  |
| < 500 | < 1000 | Cc1c(Sc2cnc3nc(N4CCC5(CC4)Cc4ccccc4[C@H]5N)[nH]c3n2)ccnc1N [Example 204, (S)-1′-(6-((2-amino-3-methylpyridin-4-yl)thio)-1H-imidazo[4,5-b]pyrazin-2-yl)-1,3-dihydrospiro[indene-2,4′-piperidin]-1-amine] |  |
| < 500 | < 1000 | N[C@@H]1c2ccccc2CC12CCN(c1nc3nc(Sc4cccnc4C(F)(F)F)cnc3[nH]1)CC2 [Example 107, (S)-1′-(5-((2-(trifluoromethyl)pyridin-3-yl)thio)-1H-imidazo[4,5-b]pyrazin-2-yl)-1,3-dihydrospiro[indene-2,4′-piperidin]-1-amine] |  |
| < 500 | 1000 to 5000 | N[C@@H]1c2ccccc2CC12CCN(c1nc3nc(Sc4cc(Cl)nn5ccnc45)cnc3[nH]1)CC2 [Example 251, (S)-1′-(5-((6-chloroimidazo[1,2-b]pyridazin-8-yl)thio)-1H-imidazo[4,5-b]pyrazin-2-yl)-1,3-dihydrospiro[indene-2,4′-piperidin]-1-amine] |  |
| < 500 | < 1000 | Cn1cc2c(n1)CC1(CCN(c3nc4nc(Sc5ccnc(N)c5Cl)cnc4[nH]3)CC1)C2N (stereo not shown) [Example 233, 1′-(5-((2-amino-3-chloropyridin-4-yl)thio)-1H-imidazo[4,5-b]pyrazin-2-yl)-2-methyl-2,6-dihydro-4H-spiro[cyclopenta[c]pyrazole-5,4′-piperidin]-4-amine] |  |
| < 500 | < 1000 | N[C@@H]1c2ccccc2CC12CCN(c1nc3nc(Sc4cccc5nonc45)cnc3[nH]1)CC2 [Example 213, (S)-1′-(5-(benzo[c][1,2,5]oxadiazol-4-ylthio)-1H-imidazo[4,5-b]pyrazin-2-yl)-1,3-dihydrospiro[indene-2,4′-piperidin]-1-amine] |  |

| Compound | IC50 [1] [nM] | IC50 [2, 3] [nM] | IC50 [2] [nM] |
| --- | --- | --- | --- |
| N[C@H]1c2ccccc2CC12CCN(c1nc3nc(Sc4cccnc4C(F)(F)F)cnc3[nH]1)CC2 [Example 149, (R)-1′-(5-((2-(trifluoromethyl)pyridin-3-yl)thio)-1H-imidazo[4,5-b]pyrazin-2-yl)-1,3-dihydrospiro[indene-2,4′-piperidin]-1-amine] | < 500 |  | 1000 to 5000 |
